From US20080318943A1, “Compounds and Uses Thereof - 848” (ASTRAZENECA AB, priority 2007, published 2008)

Experiments:
[1] = target: T1, GABAA2 receptors (α2, β3, γ2 receptor subunits transfected into Sf9 cells) (Homo sapiens, UniProt P18507+P47869); experiment: GABAA2 Binding Method ([3H]-Flunitrazepam displacement); conditions: [3H]-Flunitrazepam ~2 nM, α2β3γ2 Sf9 membranes, 1 hr at 4° C.
T1 construct: host or cells: Sf9 cells (membranes)
Summary of the method: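 Membranes from Sf9 cells expressing α2β3γ2 GABAA receptors incubated with ~2 nM (final) [3H]-flunitrazepam and test compound 1 h at 4 °C, then filtered on GF/B plates with cold-buffer washes. Flumazenil-defined controls; percent of control, IC50 and Ki calculated.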

GABAA receptor α1β2γ2 = target: T2, GABAA receptor α1β2γ2 (Homo sapiens, UniProt P14867+P18507); experiment: Two-electrode voltage-clamp potentiation of GABA EC10 current in Xenopus oocytes, GABAA1; type: cell-based; conditions: percentage potentiation of GABA EC10 current divided by that of diazepam
T2 construct: expressed in transfected cells; host or cells: Xenopus laevis oocytes injected with cRNA
Summary of the method: (§1)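 Human GABAA receptors expressed in Xenopus oocytes by cRNA injection (α:β:γ molar ratio ~1:1:10 for α1β2γ2, 1:1:1 for α2β3γ2), recorded 2-10 days later by two-electrode voltage clamp at −60 mV in ND-96, pH 7.5. Modulator preapplied 30 s before GABA at per-oocyte EC10. Peak-current percent potentiation over GABA alone, normalised to diazepam.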

GABAA receptor α2β3γ2 = target: T3, GABAA receptor α2β3γ2 (Homo sapiens, UniProt P18507+P47869); experiment: Two-electrode voltage-clamp potentiation of GABA EC10 current in Xenopus oocytes, GABAA2; type: cell-based; conditions: percentage potentiation of GABA EC10 current divided by that of diazepam
T3 construct: expressed in transfected cells; host or cells: Xenopus laevis oocytes injected with cRNA
Summary of the method: as §1

[2] = listed as 9-amino-2-cyclobutyl-5-(2-fluoro-6-methoxyphenyl)-2,3-dihydro-1H-pyrrolo[3,4-b]q

T3 sequence (P47869 29-451): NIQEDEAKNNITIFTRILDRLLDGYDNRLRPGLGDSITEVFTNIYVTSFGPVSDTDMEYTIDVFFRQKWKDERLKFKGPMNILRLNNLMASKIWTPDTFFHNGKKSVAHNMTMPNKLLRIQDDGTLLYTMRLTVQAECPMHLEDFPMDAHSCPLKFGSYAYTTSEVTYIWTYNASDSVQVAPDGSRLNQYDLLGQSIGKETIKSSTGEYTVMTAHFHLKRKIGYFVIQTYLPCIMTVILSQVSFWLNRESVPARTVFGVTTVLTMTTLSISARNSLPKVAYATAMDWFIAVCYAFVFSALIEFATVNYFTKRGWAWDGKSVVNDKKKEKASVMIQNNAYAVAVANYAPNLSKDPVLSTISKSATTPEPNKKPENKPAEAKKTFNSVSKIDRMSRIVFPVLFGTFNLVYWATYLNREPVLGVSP
T3 sequence (P28472 26-473 partner): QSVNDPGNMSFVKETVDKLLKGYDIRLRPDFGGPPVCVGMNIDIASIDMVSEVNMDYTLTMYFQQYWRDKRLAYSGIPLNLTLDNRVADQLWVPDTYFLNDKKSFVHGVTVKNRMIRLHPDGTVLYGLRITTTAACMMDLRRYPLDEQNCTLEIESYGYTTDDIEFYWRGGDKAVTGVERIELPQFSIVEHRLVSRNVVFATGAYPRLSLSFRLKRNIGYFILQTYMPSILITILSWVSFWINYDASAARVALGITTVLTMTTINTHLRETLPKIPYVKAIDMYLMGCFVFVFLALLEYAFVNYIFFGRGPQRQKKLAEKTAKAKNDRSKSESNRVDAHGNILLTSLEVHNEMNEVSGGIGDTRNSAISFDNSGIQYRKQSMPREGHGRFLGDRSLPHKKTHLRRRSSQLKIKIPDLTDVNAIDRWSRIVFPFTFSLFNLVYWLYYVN
T3 sequence (P18507 40-475): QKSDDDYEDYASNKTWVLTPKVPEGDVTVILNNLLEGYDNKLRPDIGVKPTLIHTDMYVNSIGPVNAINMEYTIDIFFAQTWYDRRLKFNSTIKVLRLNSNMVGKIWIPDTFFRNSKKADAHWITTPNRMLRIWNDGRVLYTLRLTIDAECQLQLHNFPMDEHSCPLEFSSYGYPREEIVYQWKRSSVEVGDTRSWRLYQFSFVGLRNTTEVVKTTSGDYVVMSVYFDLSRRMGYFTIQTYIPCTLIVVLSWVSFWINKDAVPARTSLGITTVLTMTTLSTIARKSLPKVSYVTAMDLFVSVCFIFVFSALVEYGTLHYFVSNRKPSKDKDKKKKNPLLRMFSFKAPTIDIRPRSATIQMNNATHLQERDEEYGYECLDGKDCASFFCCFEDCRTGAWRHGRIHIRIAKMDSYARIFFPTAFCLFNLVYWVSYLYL
T1 sequence (P47869 29-451): as the sequence (P47869 29-451) above
T1 sequence (P28472 26-473 partner): as the sequence (P28472 26-473 partner) above
T1 sequence (P18507 40-475): as the sequence (P18507 40-475) above
T2 sequence (P14867 28-456): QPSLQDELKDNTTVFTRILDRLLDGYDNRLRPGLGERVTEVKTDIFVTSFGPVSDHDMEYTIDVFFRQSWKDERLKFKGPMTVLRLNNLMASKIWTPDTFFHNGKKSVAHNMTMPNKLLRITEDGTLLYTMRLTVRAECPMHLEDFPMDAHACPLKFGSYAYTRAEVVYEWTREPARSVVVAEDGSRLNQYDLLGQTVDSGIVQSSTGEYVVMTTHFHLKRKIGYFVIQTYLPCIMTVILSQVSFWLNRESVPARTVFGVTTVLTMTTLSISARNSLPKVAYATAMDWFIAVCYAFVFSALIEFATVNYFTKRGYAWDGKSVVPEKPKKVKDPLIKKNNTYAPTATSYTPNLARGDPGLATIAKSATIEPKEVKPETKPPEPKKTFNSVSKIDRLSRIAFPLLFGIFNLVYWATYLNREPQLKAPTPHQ
T2 sequence (P47870 25-512 partner limits assumed): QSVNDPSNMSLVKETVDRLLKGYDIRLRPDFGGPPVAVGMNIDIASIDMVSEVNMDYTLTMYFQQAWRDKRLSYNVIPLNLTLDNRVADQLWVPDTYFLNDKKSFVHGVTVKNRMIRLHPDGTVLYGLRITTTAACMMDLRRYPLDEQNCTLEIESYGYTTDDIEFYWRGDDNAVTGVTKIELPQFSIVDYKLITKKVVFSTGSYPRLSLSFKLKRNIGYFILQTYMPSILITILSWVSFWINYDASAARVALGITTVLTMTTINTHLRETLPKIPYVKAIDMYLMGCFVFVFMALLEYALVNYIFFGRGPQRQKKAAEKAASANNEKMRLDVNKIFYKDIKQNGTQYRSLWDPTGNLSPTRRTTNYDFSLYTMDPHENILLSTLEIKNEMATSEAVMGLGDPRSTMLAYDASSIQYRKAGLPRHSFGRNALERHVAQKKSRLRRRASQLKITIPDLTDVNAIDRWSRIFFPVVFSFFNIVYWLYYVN
T2 sequence (P18507 40-475): as the sequence (P18507 40-475) above

Compound	Ki [1]	Relative Potentiation for GABAA1 (GABAA receptor α1β2γ2)	Relative Potentiation for GABAA2 (GABAA receptor α2β3γ2)	Relative Potentiation for GABAA1 (GABAA receptor α1β2γ2; [2])	Relative Potentiation for GABAA2 (GABAA receptor α2β3γ2; [2])
CCCN1Cc2nc3c(-c4ccc(F)nc4C)cccc3c(N)c2C1=O [9-amino-5-(6-fluoro-2-methylpyridin-3-yl)-2-propyl-2,3-dihydro-1H-pyrrolo[3,4-b]quinolin-1-one]	0.0223 µM	1.7	0.48	–	–
CCCN1Cc2nc3c(-c4cnc(F)c(C)c4)cccc3c(N)c2C1=O [9-amino-5-(6-fluoro-5-methylpyridin-3-yl)-2-propyl-2,3-dihydro-1H-pyrrolo[3,4-b]quinolin-1-one]	0.0303 µM	0.31	0.32	–	–
COc1ccc(CN2Cc3nc4c(-c5ccc(-c6ccc(Cl)nc6)nc5)cccc4c(N)c3C2=O)cc1OC [9-amino-5-(6′-chloro-2,3′-bipyridin-5-yl)-2-(3,4-dimethoxybenzyl)-2,3-dihydro-1H-pyrrolo[3,4-b]quinolin-1-one]	0.0204 µM	−0.048	0.023	–	–
COc1ccc(CN2Cc3nc4c(-c5c(F)cccc5OC)cccc4c(N)c3C2=O)cc1 [Example 1, 9-Amino-5-(2-fluoro-6-methoxyphenyl)-2-(4-methoxybenzyl)-2,3-dihydropyrrolo[3,4-b]quinolin-1-one]	0.0098 µM	−0.034	0.2	–	–
COc1ccc(CN2Cc3nc4c(-c5cc(F)ccc5F)cccc4c(N)c3C2=O)cc1 [Example 2]	0.0443 µM	0.12	0.13	–	–
COc1ccc(CN2Cc3nc4c(-c5cccnc5OC)cccc4c(N)c3C2=O)cc1 [Example 3, 9-Amino-2-(4-methoxybenzyl)-5-(2-methoxypyridin-3-yl)-2,3-dihydropyrrolo[3,4-b]quinolin-1-one]	0.022 µM	0.12	0.68	–	–
COc1ccc(OC)c(CN2Cc3nc4c(-c5cccnc5OC)cccc4c(N)c3C2=O)c1 [Example 4, 9-Amino-2-(2,5-dimethoxybenzyl)-5-(2-methoxypyridin-3-yl)-2,3-dihydropyrrolo[3,4-b]quinolin-1-one]	0.0312 µM	0.013	0.18	–	–
CCCN1Cc2nc3c(-c4c(F)cccc4OC)cccc3c(N)c2C1=O [Example 5, 9-Amino-5-(2-fluoro-6-methoxyphenyl)-2-propyl-2,3-dihydropyrrolo[3,4-b]quinolin-1-one]	0.00503 µM	0.11	0.3	–	–
CCCN1Cc2nc3c(-c4cccc(C)c4C)cccc3c(N)c2C1=O [Example 6, 9-Amino-5-(2,3-dimethylphenyl)-2-propyl-2,3-dihydropyrrolo[3,4-b]quinolin-1-one]	0.0173 µM	0.13	0.22	–	–
CCCN1Cc2nc3c(-c4cc(C)cc(C)c4)cccc3c(N)c2C1=O [Example 7, 9-Amino-5-(3,5-dimethylphenyl)-2-propyl-2,3-dihydropyrrolo[3,4-b]quinolin-1-one]	0.0943 µM	0.16	0.27	–	–
COc1ccc(CN2Cc3nc4c(-c5ccc(Cl)nc5)cccc4c(N)c3C2=O)cc1OC [Example 8, 9-Amino-5-(6-chloropyridin-3-yl)-2-(3,4-dimethoxybenzyl)-2,3-dihydropyrrolo[3,4-b]quinolin-1-one]	0.0459 µM	0.013	0.07	–	–
CCCN1Cc2nc3c(-c4ccc(OC)nc4OC)cccc3c(N)c2C1=O [Example 9, 9-Amino-5-(2,6-dimethoxypyridin-3-yl)-2-propyl-2,3-dihydropyrrolo[3,4-b]quinolin-1-one]	0.0281 µM	0.068	0.31	–	–
CCCN1Cc2nc3c(-c4ccc(C)nc4)cccc3c(N)c2C1=O [Example 10, 9-Amino-5-(6-methylpyridin-3-yl)-2-propyl-2,3-dihydropyrrolo[3,4-b]quinolin-1-one]	0.0922 µM	0.092	0.19	–	–
COc1ccc(OC)c(-c2cccc3c(N)c4c(nc23)CN(Cc2ccc(OC)c(OC)c2)C4=O)c1 [Example 11, 9-Amino-2-(3,4-dimethoxybenzyl)-5-(2,5-dimethoxyphenyl)-2,3-dihydropyrrolo[3,4-b]quinolin-1-one]	0.011 µM	0.15	0.19	–	–
CCCN1Cc2nc3c(-c4cnc(OC)cc4C)cccc3c(N)c2C1=O [Example 12, 9-Amino-5-(6-methoxy-4-methylpyridin-3-yl)-2-propyl-2,3-dihydropyrrolo[3,4-b]quinolin-1-one]	0.0506 µM	0.17	0.23	–	–
CCCN1Cc2nc3c(-c4ccc(OC)nc4OC)c(F)ccc3c(N)c2C1=O [Example 24, 9-Amino-5-(2,6-dimethoxypyridin-3-yl)-6-fluoro-2-propyl-2,3-dihydropyrrolo[3,4-b]quinolin-1-one]	0.00294 µM	0.15	0.35	–	–

Results, then the compound that gave them:

Ki [1]	Relative Potentiation for GABAA1 (GABAA receptor α1β2γ2)	Relative Potentiation for GABAA2 (GABAA receptor α2β3γ2)	Relative Potentiation for GABAA1 (GABAA receptor α1β2γ2; [2])	Relative Potentiation for GABAA2 (GABAA receptor α2β3γ2; [2])	Compound
0.0267 µM	0.21	0.37	–	–	CCCN1Cc2nc3c(-c4cccnc4F)cccc3c(N)c2C1=O [Example 13, 9-Amino-5-(2-fluoropyridin-3-yl)-2-propyl-2,3-dihydropyrrolo[3,4-b]quinolin-1-one]
0.0155 µM	0.22	0.37	–	–	COc1ccc(C)cc1-c1cccc2c(N)c3c(nc12)CN(Cc1ccc2c(c1)OCO2)C3=O [Example 14, 9-Amino-2-benzo[1,3]dioxol-5-ylmethyl-5-(2-methoxy-5-methylphenyl)-2,3-dihydropyrrolo[3,4-b]quinolin-1-one]
0.00706 µM	0.29	0.87	–	–	CCCN1Cc2nc3c(-c4ccc(C)nc4Cl)cccc3c(N)c2C1=O [Example 15, 9-Amino-5-(2-chloro-6-methylpyridin-3-yl)-2-propyl-2,3-dihydropyrrolo[3,4-b]quinolin-1-one]
0.00436 µM	−0.11	0.15	–	–	CCN1Cc2nc3c(-c4c(F)cccc4OC)cccc3c(N)c2C1=O [Example 17, 9-Amino-2-ethyl-5-(2-fluoro-6-methoxyphenyl)-2,3-dihydropyrrolo[3,4-b]quinolin-1-one]
0.00162 µM	–	–	−0.07	0.2	COc1cccc(F)c1-c1cccc2c(N)c3c(nc12)CN(C1CCC1)C3=O [Example 18, 9-Amino-2-cyclobutyl-5-(2-fluoro-6-methoxyphenyl)-2,3-dihydropyrrolo[3,4-b]quinolin-1-one]
0.0242 µM	0.022	0.28	–	–	CCN1Cc2nc3c(-c4cccnc4OC)cccc3c(N)c2C1=O [Example 19, 9-Amino-2-ethyl-5-(2-methoxypyridin-3-yl)-2,3-dihydropyrrolo[3,4-b]quinolin-1-one]
0.0188 µM	0.046	0.26	–	–	COc1cccc(F)c1-c1cccc2c(N)c3c(nc12)CN(C)C3=O [Example 20, 9-Amino-5-(2-fluoro-6-methoxyphenyl)-2-methyl-2,3-dihydropyrrolo[3,4-b]quinolin-1-one]
0.0182 µM	0.07	0.14	–	–	COc1cccc(-c2cccc3c(N)c4c(nc23)CN(C2CC2)C4=O)c1F [Example 22, 9-Amino-2-cyclopropyl-5-(2-fluoro-3-methoxyphenyl)-2,3-dihydropyrrolo[3,4-b]quinolin-1-one]
0.00436 µM	0.11	0.34	–	–	COc1ccc(CN2Cc3nc4c(-c5ccc(C)nc5Cl)cccc4c(N)c3C2=O)cc1OC [Example 23, 9-Amino-5-(2-chloro-6-methylpyridin-3-yl)-2-(3,4-dimethoxybenzyl)-2,3-dihydropyrrolo[3,4-b]quinolin-1-one]
0.0141 µM	−0.11	0.17	–	–	CCN1Cc2nc3c(-c4ccccc4C#N)cccc3c(N)c2C1=O [Example 25, 2-(9-Amino-2-ethyl-1-oxo-2,3-dihydro-1H-pyrrolo[3,4-b]quinolin-5-yl)-benzonitrile]
0.00896 µM	0.062	0.18	–	–	CCN1Cc2nc3c(-c4ccc(OC)nc4OC)c(F)ccc3c(N)c2C1=O [Example 26, 9-Amino-5-(2,6-dimethoxypyridin-3-yl)-2-ethyl-6-fluoro-2,3-dihydropyrrolo[3,4-b]quinolin-1-one]
0.0214 µM	0.07	0.19	–	–	CCN1Cc2nc3c(-c4ccc(OC)c(OC)c4)cccc3c(N)c2C1=O [Example 29, 9-Amino-2-ethyl-5-(3,4-dimethoxyphenyl)-2,3-dihydropyrrolo[3,4-b]quinolin-1-one]
